According to patent US7790697B2, “Compositions and methods for inhibiting the synthesis or expression of MMP-1” (Trustees of Dartmouth College, priority 2004, dated 2010):

How the values were obtained:
[1] = system: MDA-231 cells in type I collagen gel; experiment: In vitro collagen gel destruction assay; format: cell-based; conditions: empty vector MDA-231 cells, 36 hours
Procedure: In vitro Collagen Gel Destruction Assay. Collagen preparations were carried out on ice to prevent premature jelling. A solution of purified type I bovine collagen (Cohesion Technologies, Palo Alto, Calif.) was neutralized with a sterile 10× phosphate-buffered saline (pH 7.4), and 0.1 M NaOH. The solution of neutralized collagen (2 mg/mL) was mixed with an equivalent volume of cells suspended in serum free DMEM to yield a final concentration of 2×10^5 cells/mL in 1 mg/mL fibrillar collagen, and 1 mL of the collagen/cell mixture was added to each well of a six-well plate. After approximately 1 hour, the collagen jelled, and 1 mL of serum-free media was added on top of the gel. For some experiments, 25 μM ILOMASTAT® (CHEMICON®, Temecula, Calif.), 50 U/mL aprotinin (Sigma, St. Louis, Mo.), 1 μg/mL neutralizing MMP-1 antibody (MMP-1 ab-5; ONCOGENE™ Research Products, San Diego, Calif.), 1 μg/mL monoclonal FLAG® antibody (Sigma, St. Louis, Mo.), or 1% DMSO were added to the collagen before it jelled. After 36 hours of incubation at 37° C. the medium was removed from the top of collagen gels and weighed. The weight of media added at the start of the 37° C. incubation (1 gram) was subtracted from the total media weights to reveal the amount of media liberated by collagen gel destruction.
An in vitro collagen destruction assay was developed to determine whether the MMP-1 levels in MDA-231 cells with the empty vector were functionally capable of degrading a collagen matrix, and whether the shRNA-mediated reduction in MMP-1 was sufficient to change the invasive behavior of the cells. MDA-231 cells harboring either the empty vector or the MMP-1 shRNA were embedded in a solution of type I collagen (1 mL). The collagen was allowed to solidify at 37° C., and 1 mL of serum-free medium was layered on top of each gel. After 36 hours at 37° C., the medium was removed from each well and photographs were taken. No collagen was visible in wells containing MDA-231 cells with the empty vector. […] The medium removed from each well was weighed to quantitate the amount of medium liberated as the gel was destroyed. After 36 hours, approximately 1 mL (0.8±0.06 grams) of medium was liberated from the collagen gels containing the MDA-231 cells with the empty vector. […] Conversely, no medium (−0.01±0.03 grams) was liberated from collagen gels containing MDA-231 cells producing the MMP-1 shRNA. The slight decrease in the volume of medium recovered may be due to evaporation of the medium during the incubation period.

[2] = system: MMP-1 protein; experiment: Western blot of MMP-1 protein in culture medium; format: cell-based, human; conditions: empty vector MDA-231 cells in collagen gel; 50 U/mL; 24 hours
Procedure: Western Blot Analysis. MDA-231 cells were cultured in 1 mL serum-free DMEM/F12 medium in six-well plates in the presence or absence of a collagen gel, with or without aprotinin (50 U/mL; Sigma, St. Louis, Mo.). After 24 hours, medium was harvested, proteins precipitated with cold 10% trichloroacetic acid, and resuspended in 50 μL SDS loading buffer (PROMEGA®, Madison, Wis.). Following SDS-PAGE and transfer to a PVDF membrane (IMMOBILON™-P; MILLIPORE™, Bedford, Mass.), the membrane was incubated in a 5% milk, Tris-buffered saline solution with 0.1% TWEEN™ (milk TBST) for 1 hour. The membrane was probed with a MMP-1 polyclonal antibody (CHEMICON®, Temecula, Calif.) diluted 1:5000 in milk TBST overnight at 4° C. The membrane was washed three times with TBST, and a 1:2000 dilution of goat anti-rabbit horseradish peroxidase (HRP) conjugated antibody (CELL SIGNALING TECHNOLOGY®, Beverly, Mass.) in milk TBST was added for 60 minutes. The blot was washed three times with TBST, and HRP activity was detected with the WESTERN LIGHTNING® chemiluminescence reagent according to the manufacturer's instructions (PERKINELMER®, Boston, Mass.).
The three MMPs primarily responsible for degrading type 1 collagen are MMP-1, MMP-13, and the membrane bound MT1-MMP (Stamenkovic (2003) J. Pathol. 200:448-64). […]

[3] = system: MDA-231 cells; experiment: Creation and subcloning of stable MDA-231 cell lines; format: cell-based; conditions: PSUPER-retro plasmid, G418 selection and subcloning
Procedure: Transfection of NIH/3T3 and MDA-231 Cells. NIH/3T3 cells were transiently transfected with LIPOFECTAMINE™ 2000 (INVITROGEN™, Carlsbad, Calif.) along with 0.5 μg peGFP, 0.5 μg pCMV-MMP-1, and 2 μg PSUPER™-MMP-1 shRNA or PSUPER™ with no insert. Transfection efficiency was monitored using eGFP signal. Total cellular RNA was harvested 48 hours after transfection and analyzed for MMP-1 mRNA by real-time RT-PCR. MDA-231 cells were stably transfected in triplicate with LIPOFECTAMINE™ 2000 (INVITROGEN™, Carlsbad, Calif.) and 2 μg of the PSUPER™.Retro.Neo.GFP plasmid containing the MMP-1 shRNA, the scrambled sequence or just the empty vector. Stable cell lines were selected by growth in the presence of 1 mg/mL G418 (STRATAGENE®, La Jolla, Calif.). Individual, stable cell lines were isolated with cloning disks according to the manufacturer's instructions (PGC Scientifics, Frederick, Md.).
Three groups of stable MDA-231 cell lines were created. One group contained only the PSUPER™-retro plasmid, a second group contained a PSUPER™-retro plasmid with the scrambled shRNA sequence, and the third contained a PSUPER™-retro plasmid with the MMP-1 shRNA oligonucleotide.

CNC(=O)[C@H](Cc1c[nH]c2ccccc12)NC(=O)[C@@H](CC(=O)NO)CC(C)C [ILOMASTAT®, ILOMASTAT, reference compound]
medium liberated from collagen gels ([1]; 25 μM/gel inhibitor embedded): −0.1±0.08 grams

aprotinin [reference compound]
MMP-1 bands in medium / activation of proMMP-1 (western blot) [2]: only the higher molecular weight zymogen band | medium liberated from collagen gels ([1]; 50 U/mL collagen embedded): 0.01±0.1 grams

scrambled shRNA: Control shRNA with identical hairpin loop and linker, sequence not complementary to any human gene (SEQ ID NO:6) (AAGTGGAGGGACGTATGCA; the letters are possibly those of the target site)
growth and survival of stably transfected cells [3]: did not grow well, and did not survive the subcloning procedures
